A word on the IC50: it is the concentration that gives 50% inhibition.

A value given as a limit tells only on which side of the number the result lay.

In assay [1] the target is T1, PxRDL2 (Plutella xylostella, UniProt C0L7I7).
T1 sequence (C0L7I7 30-520): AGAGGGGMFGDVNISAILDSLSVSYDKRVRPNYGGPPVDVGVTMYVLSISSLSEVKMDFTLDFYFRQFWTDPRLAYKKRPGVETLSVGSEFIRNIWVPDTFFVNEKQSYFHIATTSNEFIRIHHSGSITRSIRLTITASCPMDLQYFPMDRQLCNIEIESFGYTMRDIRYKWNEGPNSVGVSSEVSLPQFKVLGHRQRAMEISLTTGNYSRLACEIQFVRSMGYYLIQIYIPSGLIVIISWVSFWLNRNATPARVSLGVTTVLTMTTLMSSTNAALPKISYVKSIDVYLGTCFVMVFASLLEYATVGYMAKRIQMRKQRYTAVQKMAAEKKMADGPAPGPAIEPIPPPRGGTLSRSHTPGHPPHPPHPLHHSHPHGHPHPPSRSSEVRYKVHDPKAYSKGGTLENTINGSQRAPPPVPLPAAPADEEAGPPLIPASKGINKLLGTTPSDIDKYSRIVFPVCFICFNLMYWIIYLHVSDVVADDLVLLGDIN
The assay is described as follows: cell-based. Also noted: species or system Xenopus laevis oocytes.

For assay [2], the target named is T2, PxRDL1 (Plutella xylostella, UniProt C0L7I5).
T2 sequence (C0L7I5 26-485): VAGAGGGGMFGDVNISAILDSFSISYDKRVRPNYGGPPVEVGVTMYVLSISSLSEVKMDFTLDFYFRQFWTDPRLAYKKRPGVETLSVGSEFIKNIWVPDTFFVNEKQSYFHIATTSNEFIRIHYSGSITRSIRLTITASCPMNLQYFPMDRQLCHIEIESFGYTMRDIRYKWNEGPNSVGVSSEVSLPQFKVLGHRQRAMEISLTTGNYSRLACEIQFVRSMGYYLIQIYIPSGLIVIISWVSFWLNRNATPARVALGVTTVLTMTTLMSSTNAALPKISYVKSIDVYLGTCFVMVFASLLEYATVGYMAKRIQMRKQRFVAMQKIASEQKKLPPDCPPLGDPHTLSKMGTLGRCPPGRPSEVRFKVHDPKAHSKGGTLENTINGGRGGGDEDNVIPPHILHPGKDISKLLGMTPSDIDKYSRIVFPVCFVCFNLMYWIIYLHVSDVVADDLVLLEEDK
The experiment in a line: two-electrode voltage clamp, Xenopus laevis oocytes. The assay is classed as cell-based. A general note: Two-electrode voltage clamp is typically applied to oocytes expressing channels or transporters.

The target of assay [3] is T1, PxRDL2. The description is as above. The assay is classed as cell-based.

In the case of `CCOC(=O)C1(C(=O)OCC)Nc2c([S+]([O-])C(F)(F)F)c(C#N)nn2-c2c(Cl)cc(C(F)(F)F)cc21` (stereo not drawn) [4a, diethyl 9-chloro-2-cyano-7-(trifluoromethyl)-3-((trifluoromethyl)sulfinyl)pyrazolo[1,5-α]quin azoline-5,5(4H)-dicarboxylate], the IC50 in assay [1] was more than 30000 nM; in assay [2] it was 2020 nM.

Turning to `Cc1cc(C2=NOC(c3cc(Cl)cc(Cl)c3)(C(F)(F)F)C2)ccc1C(=O)NCC(=O)NCC(F)(F)F` (stereo not drawn) [fluralaner, 4-[5-(3,5-dichlorophenyl)-5-(trifluoromethyl)-4H-1,2-oxazol-3-yl]-2-methyl-N-[2-oxo-2-(2,2,2-trifluoroethylamino)ethyl]benzamide], the IC50 in assay [2] amounted to 10 nM; in assay [3], 18 nM.

With `CON=CNC(=O)c1ccc(C2=NOC(c3cc(Cl)cc(Cl)c3)(C(F)(F)F)C2)cc1C` (stereo not drawn) [fluxametamide, 4-[5-(3,5-dichlorophenyl)-5-(trifluoromethyl)-4H-1,2-oxazol-3-yl]-N-[(E)-methoxyiminomethyl]-2-methylbenzamide], the IC50 is 20 nM in assay [2] and 17 nM in assay [3].

The values above are taken from paper doi:10.1101/2021.03.24.436736v2 (biorxiv, 2023).
